Test results taken from patent publication US20210038587A1, “METHODS AND COMPOSITIONS FOR TREATING NON-ERK MAPK PATHWAY INHIBITOR-RESISTANT CANCERS” (BIOMED VALLEY DISCOVERIES, INC., priority 2013, published 2021).

Legend:
Experiment in all cases: Reverse Phase Protein Analysis (RPPA)
MIAPaCa-2 = type: cell-based; conditions: MIAPaca2; % change from DMSO (matched cell line)
Colo205 = type: cell-based, human; conditions: % change from DMSO (matched cell line)
AN3Ca = type: cell-based; conditions: % change from DMSO (matched cell line)
Description: Control wells were treated with DMSO at 0.1% (v/v) for 6 hours prior to cell lysate generation. Samples were then analyzed using reverse-phase protein microarray technology (Theranostics Health).
Cell lines with common alterations in BRAF and RAS were assayed: BRAF^V600E mutant lines A375, Colo205, and HT29; KRAS^G12C-mutant cell line MIAPACa-2; KRAS^G13D-mutant cell line HCT116; and AN3Ca with atypical HRAS^F82L mutation. Changes in protein levels are shown as a percentage change from dimethyl sulfoxide (DMSO)-treated parental control (FIG. 32A and Table 23).

In the case of `CC(C)Nc1cc(-c2c[nH]c(C(=O)N[C@H](CO)c3cccc(Cl)c3)c2)c(Cl)cn1` [BVD-523], the “Avg (4ebp1 T70)” value (MIAPaCa-2) is reported as −9.42%, the “Avg (Akt S473)” value (MIAPaCa-2) is reported as 9.9% and the “Avg (Akt)” value (MIAPaCa-2) is reported as 23.63%. For the same compound, the “Avg (Bad S136)” value (MIAPaCa-2) was −4.12%, the “Avg (Bad S155)” value (MIAPaCa-2) was −5.65% and the “Avg (Bak)” value (MIAPaCa-2) was −15.15%. The “Avg (Bax)” value (MIAPaCa-2) was 23.44%, the “Avg (Bcl 2)” value (MIAPaCa-2) was 5.86% and the “Avg (Bcl2 S70)” value (MIAPaCa-2) was 0.89%. For the same compound, the “Avg (Bcl 2 T56)” value (MIAPaCa-2) was −1.78%, the “Avg (Bim)” value (MIAPaCa-2) was −12.51% and the “Avg (CREB S133)” value (MIAPaCa-2) was −19.26%. The “Avg (Caspase 3 CL D175)” value (MIAPaCa-2) was 22.35%, the “Avg (Caspase 7 Cl D198)” value (MIAPaCa-2) was −6.44% and the “Avg (Chk1)” value (MIAPaCa-2) was −3.51%. The “Avg (Chk1 S345)” value (MIAPaCa-2) was 1.2%, the “Avg (Cyclin D1)” value (MIAPaCa-2) was −37.9% and the “Avg (ERK 1 2)” value (MIAPaCa-2) was −40.33%. The “Avg (ERK 1 2 T202 Y204)” value (MIAPaCa-2) was 209.14%, the “Avg (MAK1 S360)” value (MIAPaCa-2) was −10.72% and the “Avg (Mcl1)” value (MIAPaCa-2) was −7.27%. For the same compound, the “Avg (Raptor S792)” value (MIAPaCa-2) was 5.95%, the “Avg (Raptor)” value (MIAPaCa-2) was 21.15% and the “Avg (Stat1)” value (MIAPaCa-2) was 8.62%. For the same compound, the “Avg (Stat3)” value (MIAPaCa-2) was −1.23%, the “Avg (bad S112)” value (MIAPaCa-2) was −30.29% and the “Avg (c Fos)” value (MIAPaCa-2) was −18.44%. For the same compound, the “Avg (c Myc)” value (MIAPaCa-2) was −8.77%, the “Avg (mTOR S2448)” value (MIAPaCa-2) was −11.73% and the “Avg (mTOR S2481)” value (MIAPaCa-2) was −0.24%. For the same compound, the “Avg (mTOR)” value (MIAPaCa-2) was −3.27%, the “Avg (p70 S6 Kinase)” value (MIAPaCa-2) was −3.59% and the “Avg (p90 RSK S380)” value (MIAPaCa-2) was −35%. For the same compound, the “Avg(S6 Ribo Prot S235 236)” value (MIAPaCa-2) was −79.46%, the “Avg(S6 Ribo Prot S240 244)” value (MIAPaCa-2) was −88.03% and the “Avg(Tuberin TSC2 Y1571)” value (MIAPaCa-2) was 1.7%. The “Avg(p70 S6 Kinase S371 S394)” value (MIAPaCa-2) was −28.27%, the “Avg(p70 S6 Kinase T389 T412)” value (MIAPaCa-2) was −39.23% and the “Avg (4ebp1 T70)” value (Colo205) was −36.35%. The “Avg (Akt S473)” value (Colo205) was −5.78%, the “Avg (Akt)” value (Colo205) was −3.85% and the “Avg (Bad S136)” value (Colo205) was 5.05%. For the same compound, the “Avg (Bad S155)” value (Colo205) was −18.18%, the “Avg (Bak)” value (Colo205) was 3.79% and the “Avg (Bax)” value (Colo205) was 0.28%. The “Avg (Bcl 2)” value (Colo205) was −0.13%, the “Avg (Bcl2 S70)” value (Colo205) was −10.2% and the “Avg (Bcl 2 T56)” value (Colo205) was −11.84%. For the same compound, the “Avg (Bim)” value (Colo205) was 41.73%, the “Avg (CREB S133)” value (Colo205) was −2.67% and the “Avg (Caspase 3 CL D175)” value (Colo205) was −3.18%. For the same compound, the “Avg (Caspase 7 Cl D198)” value (Colo205) was 6.76%, the “Avg (Chk1)” value (Colo205) was −2.86% and the “Avg (Chk1 S345)” value (Colo205) was −4.63%. For the same compound, the “Avg (Cyclin D1)” value (Colo205) was −23.65%, the “Avg (ERK 1 2)” value (Colo205) was −18.83% and the “Avg (ERK 1 2 T202 Y204)” value (Colo205) was 14.39%. For the same compound, the “Avg (MAK1 S360)” value (Colo205) was 14.69%, the “Avg (Mcl1)” value (Colo205) was −2.7% and the “Avg (Raptor S792)” value (Colo205) was 0.41%. For the same compound, the “Avg (Raptor)” value (Colo205) was −7.14%, the “Avg (Rictor)” value (Colo205) was −5.21% and the “Avg (Stat1)” value (Colo205) was 0.53%. For the same compound, the “Avg (Stat3)” value (Colo205) was −2.58%, the “Avg (bad S112)” value (Colo205) was −31.51% and the “Avg (c Fos)” value (Colo205) was −12.25%. The “Avg (mTOR S2448)” value (Colo205) was −23.51%, the “Avg (mTOR S2481)” value (Colo205) was −1.33% and the “Avg (mTOR)” value (Colo205) was 12.77%. The “Avg (p70 S6 Kinase)” value (Colo205) was 0.14%, the “Avg (p90 RSK S380)” value (Colo205) was −50.84% and the “Avg(S6 Ribo Prot S235 236)” value (Colo205) was −96.15%. The “Avg(S6 Ribo Prot S240 244)” value (Colo205) was −97.33%, the “Avg(Tuberin TSC2 Y1571)” value (Colo205) was −3.48% and the “Avg(p70 S6 Kinase S371 S394)” value (Colo205) was −18.11%. The “Avg(p70 S6 Kinase T389 T412)” value (Colo205) was −36.4% and the “Avg (4ebp1 T70)” value (AN3Ca) was 32.17%.
